Patent US20250388857A1, “USE OF TRIBUTYRIN AS AN ADDITIVE FOR EMBRYONIC DEVELOPMENT CULTURE MEDIUM IN VITRO” (Institute of Animal Sciences and Veterinary Medicine, Hubei …, priority 2024, published 2025)

Experiments:
SOD2 = test: detection of antioxidant gene expression in mouse embryos (qPCR), SOD2; format: cell-based; conditions: 100 μmol/L tributyrin, 2-cell stage, vs control, RPLP0 internal control
Experimental: (§1) Therefore, exemplically, experiments are carried out in the experimental group of this example using culture medium added 100 μmol/L of tributyrin, specifically, the experiments are divided into the following two groups:
(§2) Experimental group: the development culture medium in vitro of mouse embryos containing 100 μmol/L of tributyrin was added to the special dish for embryo culture, 2 droplets were made, 50 μL of culture medium per droplets, covered with paraffin oil, pre-balanced in an incubator with 37° C., 5% CO2 saturated humidity for more than 6 hours, and the embryos were placed in well-balanced culture droplets, with 25˜35 pieces per droplets.
(§3) Referring to the steps of development culture in vitro of example 2, development culture in vitro was carried out on the above two treatment groups; embryos from the control group and the experimental group at the 2-cell stage were obtained, the high-purity RNA was extracted according to the instructions of the RNAprep Pure Total RNA Extraction Kit for Micro Samples (Tiangen, DP420). […] (annealed) for 30 s; 40 cycles (PCR amplification); the fluorescent signal was collected at 55° C. extension, the RPLPO gene was used as an internal control, and the expression was calculated using the 2^−ΔΔct formula, wherein, the primer sequences of each gene are shown in Table 2 below: […]

mouse embryos [1] = test: development in vitro of mouse embryos (rate of 2-cell, 4-cell, blastocyst); format: cell-based; conditions: for The rate of 2-cell: 24 h culture; for The rate of 4-cell: 48 h culture
Experimental: Specifically, at 4:00 p.m. on the first day, 10 IU pregnant horse serum gonadotropin was injected intraperitoneally into Kunming female mouse with SPF level for 6˜9 weeks, and 8 IU chorionic gonadotropin was injected after 48 hours. At 9:00 the next day, the 9˜12-week male mouse was killed by cervical dislocation, and the tail of the epididymis next to the vas deferens was taken, after cutting with ophthalmic scissors in 200 μL of insemination droplet (Sigma, MR-070-D) is to release sperm for 60 minutes. The insemination droplet need to be pre-balanced the night before. At the same time, 4 female mouse were killed by neck detachment, the enlargement of oviduct was disposed of in the sperm solution, the insulin needle was used to open the ampulla side under the microscope, and the cumulus-oocyte complex (COCs) would be released from the ampulla under the action of squeezing or internal pressure. 8˜10 μL of sperm and COCs were taken in the insemination droplet. After 6 h after insemination, the zygotes (with two pronuclei, both male and female) were cleaned and transferred to different treatments of KSOM culture medium, specific groups are as follows:
Control group: the basic development culture medium in vitro of mouse embryos was added to the special small dish for embryo culture, 2 droplets were made, 50 μL of culture medium per droplets, covered with paraffin oil, pre-balanced in an incubator with 37° C., 5% CO2 saturated humidity for more than 6 hours, and the embryos were placed in well-balanced culture droplets, with 25˜35 pieces per droplets;
as §2, with “Treatment group 1:” for “Experimental group:”, “50” for “100”, “droplets;” for “droplets.”
as §2, with “Treatment group 2:” for “Experimental group:”, “droplets;” for “droplets.”
as §2, with “Treatment group 3:” for “Experimental group:”, “200” for “100”, “droplets;” for “droplets.”
The above different treatment groups were incubated in an incubator with 37° C., 5% CO2 saturated humidity for 24 h, 48 h, 72 h and 96 h, corresponding to the 2-cell, 4-cell, morula and blastocyst stages of embryonic development, respectively, and the embryonic development was observed.
The rate of cleavage (%)=number of cleavage embryos/number of fertilized eggs with male and female pronuclei×100%
The rate of blastocyst (%)=number of blastocysts/number of cleavage embryos×100%

mouse embryos [2] = test: detection of mitochondrial membrane potential, JC-1 staining; format: cell-based; conditions: 100 μmol/L tributyrin, 2-cell stage, vs control
Experimental: as §1, §2
Referring to the steps of development culture in vitro of example 2, development culture in vitro was carried out on the above two treatment groups; according to the instructions of the mitochondrial membrane potential J C-1 detection kit (Biyuntian, C2006), the embryos of the control group and the experimental group at the 2-cell stage were transferred into 1×J C-1 staining working solution, incubated in the dark at 37° C., 5% CO2 incubator for 30 min, then wash the embryos with 1×J C-1 staining buffer, it was placed under an inverted fluorescence microscope for observation and photography. Image J software was used to analyze the average fluorescence intensity of J C-1 red and J C-1 green in embryos.

mouse embryos [3] = test: detection of ATP level in mouse embryos; format: cell-based; conditions: 100 μmol/L tributyrin, 2-cell stage, vs control
Experimental: as §1, §2
Referring to the steps of development culture in vitro of example 2, development culture in vitro was carried out on the above two treatment groups; according to the instructions of the ATP detection kit (Biyuntian, S0027), the embryos of the control group and the experimental group at the 2-cell stage were tested for ATP. Add 16 μL of ATP detection lysate to 200 μL centrifuge tube and transfer into 40 pieces 2-cell stage embryos. […] 64 μL of ATP working solution (ATP detection reagent diluent: ATP detection reagent=4:1) was added to the tube, vortex and centrifuged to the bottom of the tube, quickly transferred to a black 96-well plate with a multifunctional microplate reader for detection.

GPX4 = test: detection of antioxidant gene expression in mouse embryos (qPCR), GPX4; format: cell-based; conditions: 100 μmol/L tributyrin, 2-cell stage, vs control, RPLP0 internal control
Experimental: as §1, §2, §3

histone H3K27ac = test: detection of histone acetylation level (H3K27ac immunofluorescence); format: cell-based, mouse; conditions: 100 μmol/L tributyrin, 2-cell stage, vs control
Experimental: as §1, §2
Referring to the steps of development culture in vitro of example 2, development culture in vitro was carried out on the above two treatment groups; embryos from the control group and the experimental group at the 2-cell stage were obtained, the histone H3K27ac level was detected by immunofluorescence. The specific methods and steps are as follows:
(1) Mouse embryos fixation and permeabilization: mouse embryos were placed in a washing solution (PBS containing 0.1% Tween-20 and 0.01% Triton X-100) for rapid washing for 1 time, then piped into the fixed permeabilization solution (PBS containing 4% paraformaldehyde and 0.5% Triton) and treated at room temperature for 50 min. […]

[4] = system: 5 hmC level in mouse embryonic genome; test: detection of DNA methylation level (5 hmC immunofluorescence); format: cell-based; conditions: 100 μmol/L tributyrin, 2-cell stage, vs control
Experimental: as §1, §2
Referring to the steps of development culture in vitro of example 2, development culture in vitro was carried out on the above two treatment groups; embryos from the control group and the experimental group at the 2-cell stage were obtained, in order to detect the DNA methylation level in mouse embryos, the cells were first fixed with paraformaldehyde, TritonX-100 enhanced the permeability of the cell membrane to facilitate the binding of antibody antigens. After acidification and base neutralization, the non-specific protein is blocked with 2% BSA, followed by incubation with the corresponding primary antibody and fluorescently labeled secondary antibody. The specific methods and steps are as follows: […]

mouse embryos [5] = test: detection of reactive oxygen species (ROS) in mouse embryos, DCFH-DA fluorescence; format: cell-based; conditions: 100 μmol/L tributyrin, 2-cell stage, vs control
Experimental: as §1, §2
Referring to the steps of development culture in vitro of example 2, development culture in vitro was carried out on the above two treatment groups; according to the instructions of the reactive oxygen species detection kit (Biyuntian, S0033S), DCFH-DA was diluted to a working solution concentration of 5 µM with KSOM culture medium. […] Image J software was used to analyze the average fluorescence intensity of ROS in embryos.

For `CCCC(=O)OCC(COC(=O)CCC)OC(=O)CCC` [tributyrin], the “expression of antioxidant gene SOD2” value (SOD2) was “significantly increased”, the “The rate of 2-cell” value (mouse embryos [1]; 50 μmol/L tributyrin in KSOM) was 96.58 ± 0.83% and the “The rate of 4-cell” value (mouse embryos [1]; 50 μmol/L tributyrin in KSOM) was 95.57 ± 0.57%. For the same molecule, the “The rate of 2-cell” value (mouse embryos [1]; 100 μmol/L tributyrin in KSOM) was 96.91 ± 0.76%, the “The rate of 4-cell” value (mouse embryos [1]; 100 μmol/L tributyrin in KSOM) was 96.57 ± 0.37% and the “The rate of 2-cell” value (mouse embryos [1]; 200 μmol/L tributyrin in KSOM) was 96.63 ± 0.5%. The “The rate of 4-cell” value (mouse embryos [1]; 200 μmol/L tributyrin in KSOM) was 96.46 ± 0.5%, the “number of cells (microscopic observation, FIG. 1A)” value (mouse embryos [1]; treatment group compared to control group) was “increased significantly” and the “mitochondrial membrane potential level (relative fluorescence intensity of JC-1 red/green)” value (mouse embryos [2]) was “significantly improved”. For the same molecule, the “ATP level in mouse embryos” value (mouse embryos [3]) was “significantly increased”, the “expression of antioxidant gene GPX4” value (GPX4) was “significantly increased” and the “histone H3K27ac level in mouse embryos” value (histone H3K27ac) was “significantly increased”. For the same molecule, the “5 hmC level in mouse embryos” value [4] was “significantly increased” and the “ROS level (average fluorescence intensity of ROS) in mouse embryos” value (mouse embryos [5]) was “significantly reduced”.
